Reference: US20080261994A1, “CYCLOPROPANE COMPOUNDS AND PHARMACEUTICAL USE THEREOF” (Japan Tobacco Inc., priority 2003, published 2008)
Where two headings read alike, the source gives them in different places.

Columns and labels:
Format in all cases: biochemical
Recombinant Human MMP-13 = target: T1, Recombinant Human MMP-13 (Homo sapiens, UniProt P45452); test: MMP-13 inhibitory activity (MMP-13 specific fluorescent substrate with quencher)
T1 construct: purchased R&D systems 511-MM
Method in brief: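 IC50 (μM) derived from % inhibition, normalised to wells without enzyme and without inhibitor, fluorescence read at 325/405 nm. Enzyme and compound preceded addition of the quenched 7-MCA…DPA substrate; Tris-HCl buffer, 25 °C for 1 h, acetic-acid stop.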

MMP-1 = target: T2, MMP-1 (Homo sapiens, UniProt P03956); test: MMP-1 inhibitory action (Type I collagen Activity Measurement kit, FITC-labeled collagen type I)
T2 sequence (P03956 100-469): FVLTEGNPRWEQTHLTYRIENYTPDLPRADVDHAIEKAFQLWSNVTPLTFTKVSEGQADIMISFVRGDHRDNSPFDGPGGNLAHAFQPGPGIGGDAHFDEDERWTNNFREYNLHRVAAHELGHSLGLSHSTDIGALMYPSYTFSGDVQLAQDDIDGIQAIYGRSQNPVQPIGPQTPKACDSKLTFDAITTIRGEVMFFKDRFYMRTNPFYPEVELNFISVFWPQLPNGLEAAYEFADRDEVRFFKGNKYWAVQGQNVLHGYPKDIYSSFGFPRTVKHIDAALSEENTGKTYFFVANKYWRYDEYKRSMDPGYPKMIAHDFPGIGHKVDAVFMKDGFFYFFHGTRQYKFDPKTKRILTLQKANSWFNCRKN

aggrecanase-1 = target: T3, aggrecanase-1 (Homo sapiens, UniProt O75173); test: Aggrecanase-1 inhibitory action (Particle Assay, GAG release from aggrecan-containing polyacrylamide particles)
T3 sequence (O75173 213-837): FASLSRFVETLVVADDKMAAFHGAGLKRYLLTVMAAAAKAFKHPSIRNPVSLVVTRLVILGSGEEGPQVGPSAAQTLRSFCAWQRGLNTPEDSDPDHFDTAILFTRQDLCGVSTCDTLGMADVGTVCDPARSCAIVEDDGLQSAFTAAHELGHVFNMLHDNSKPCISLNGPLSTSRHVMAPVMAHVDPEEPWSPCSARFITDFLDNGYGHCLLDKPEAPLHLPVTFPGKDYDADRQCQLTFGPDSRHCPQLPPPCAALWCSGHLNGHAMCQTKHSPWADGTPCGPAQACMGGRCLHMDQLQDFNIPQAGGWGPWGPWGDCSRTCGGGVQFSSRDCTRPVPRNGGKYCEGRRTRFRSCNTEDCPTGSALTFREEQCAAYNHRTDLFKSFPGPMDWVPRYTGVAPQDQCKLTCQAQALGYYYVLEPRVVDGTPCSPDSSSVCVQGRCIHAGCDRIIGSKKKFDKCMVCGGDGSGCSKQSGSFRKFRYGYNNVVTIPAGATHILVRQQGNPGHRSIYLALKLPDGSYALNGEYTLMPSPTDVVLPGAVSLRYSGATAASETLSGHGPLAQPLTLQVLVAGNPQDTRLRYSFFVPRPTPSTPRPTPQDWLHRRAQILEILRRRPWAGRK
Method in brief: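 Readout was dimethylmethylene blue absorbance (595 nm) of glycosaminoglycan liberated into supernatant, calibrated with whale chondroitin sulfate. Substrate was aggrecan in polyacrylamide particles, digested 15 h at 37° C in Tris-HCl; TC50 (μM) derived from inhibition relative to no-enzyme and no-inhibitor controls.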

[1] = Recombinant Human MMP-13, fluorescent substrate, 25° C. for 1 h, read-out: IC50 MMP13 (Experimental Example 3)
[2] = MMP-1 inhibitory action, FITC-labeled collagen type I, 37° C. for 3 hr, read-out: IC50 MMP1 (Experimental Example 2)
[3] = aggrecanase-1 inhibitory action, read-out: IC50 AG1 (Experimental Example 1)
[4] = Experimental Example 3, read-out: IC50 MMP13
[5] = Experimental Example 2, read-out: IC50 MMP1
[6] = Experimental Example 1, read-out: IC50 AG1

IC50 (Recombinant Human MMP-13; [1]) [nM] | IC50 (MMP-1; [2]) [nM] | IC50 (aggrecanase-1; [3]) [nM] | IC50 (Recombinant Human MMP-13; [4]) [nM] | IC50 (MMP-1; [5]) [nM] | IC50 (aggrecanase-1; [6]) [nM] | Compound
< 100 | < 1000 | < 100 | – | – | – | C[C@@H]1[C@H](c2ccccc2)[C@]1(NS(=O)(=O)c1ccc(-c2cc(C(F)(F)F)on2)s1)C(=O)O [Example 2-7, (1S,2R,3R)-2-methyl-3-phenyl-1-[5-(5-trifluoromethyl-isoxazol-3-yl)-thiophene-2-sulfonylamino]-cyclopropanecarboxylic acid]
– | – | – | ≥ 1000 | ≥ 10000 | ≥ 1000 | C[C@]1(c2ccccc2)C[C@@]1(NS(=O)(=O)c1ccc(-c2ccc(Cl)c([N+](=O)[O-])c2)s1)C(=O)O [Example 2-477]
– | – | – | < 100 | ≥ 1000 | < 100 | O=C(O)[C@@]1(NS(=O)(=O)c2ccc(-c3cc(C(F)(F)F)on3)s2)C[C@H]1c1ccc(CCO)cc1 [Example 2-301]
– | – | – | < 100 | < 1000 | ≥ 1000 | CC1[C@H](c2ccccc2)[C@]1(NS(=O)(=O)c1ccc(-n2cc(C(F)(F)F)cn2)cc1)C(=O)O (stereo partly drawn) [Example 2-507]
< 1000 | ≥ 10000 | < 1000 | – | – | – | CC(=O)N1Cc2ccccc2C2(C1)CC2(NS(=O)(=O)c1ccc(-c2ccc(Cl)cc2)s1)C(=O)O (stereo not drawn) [Example 2-207]
– | – | – | < 100 | ≥ 1000 | < 1000 | CC1[C@H](c2ccccc2)[C@]1(NS(=O)(=O)c1ccc(-c2nc3ccccc3[nH]2)s1)C(=O)O (stereo partly drawn) [Example 2-584]
< 1000 | ≥ 1000 | < 100 | – | – | – | O=C(O)C1(NS(=O)(=O)c2ccc3c(c2)Cc2cc(Br)ccc2-3)CC1c1ccccc1 (stereo not drawn) [Example 1-72]
≥ 1000 | ≥ 10000 | < 1000 | – | – | – | CCC1CC1(NS(=O)(=O)c1ccc(-c2ccc(Cl)cc2)s1)C(=O)O (stereo not drawn) [Example 2-48]
– | – | – | < 100 | ≥ 1000 | < 1000 | O=C(CSCC1(c2ccccc2)CC1(NS(=O)(=O)c1ccc(-c2ccc(Cl)cc2)s1)C(=O)O)N1CCOCC1 (stereo not drawn) [Example 2-359]
– | – | – | < 100 | ≥ 1000 | < 100 | CC(C)C(=O)NCCCC1(c2ccccc2)CC1(NS(=O)(=O)c1ccc(-c2ccc(Cl)cc2)s1)C(=O)O (stereo not drawn) [Example 2-319]
< 100 | ≥ 1000 | < 100 | – | – | – | O=C(O)C1(NS(=O)(=O)c2ccc(-c3ccc(Cl)cc3)s2)CC1c1cccc(CO)c1 (stereo not drawn) [Example 1-134]
– | – | – | < 100 | ≥ 1000 | < 100 | O=C(O)C1(NS(=O)(=O)c2ccc(-c3ccc(Cl)cc3)s2)C2CCOc3ccccc3C21 (stereo not drawn) [Example 2-369]
< 100 | ≥ 10000 | < 100 | – | – | – | O=C(O)[C@]1(NS(=O)(=O)c2ccc(-c3ccc(Cl)cc3)s2)C[C@@H]1c1cccc([N+](=O)[O-])c1 [Example 2-170]
– | – | – | < 100 | ≥ 1000 | ≥ 1000 | COc1ccc(-c2ccc(S(=O)(=O)N[C@@]3(C(=O)O)C[C@]3(C)c3ccccc3)s2)cc1Cl [Example 2-595]
< 100 | ≥ 10000 | < 1000 | – | – | – | O=C(CCc1ccccc1C1CC1(NS(=O)(=O)c1ccc(-c2cc(C(F)(F)F)on2)s1)C(=O)O)N1CCOCC1 (stereo not drawn) [Example 2-230]
– | – | – | < 1000 | < 1000 | < 1000 | C[C@]1(c2ccccc2)C[C@@]1(NS(=O)(=O)c1ccc(-n2cc(CO)cn2)s1)C(=O)O [Example 2-603]
≥ 10000 | ≥ 10000 | ≥ 10000 | – | – | – | Cn1nc(C(F)(F)F)cc1-c1ccc(S(=O)(=O)NC2(C(=O)O)CC2c2ccccc2)s1 (stereo not drawn) [Example 2-14]
≥ 1000 | ≥ 10000 | ≥ 10000 | – | – | – | O=C(O)[C@]1(NS(=O)(=O)c2ccc(-c3nc(C(F)(F)F)cs3)s2)C[C@@H]1c1ccccc1 [Example 2-60]
< 100 | ≥ 10000 | < 100 | – | – | – | O=C(O)CCc1cccc(C2CC2(NS(=O)(=O)c2ccc(-c3ccc(Cl)cc3)s2)C(=O)O)c1 (stereo not drawn) [Example 2-180]
< 1000 | ≥ 1000 | < 1000 | – | – | – | O=C(c1cccc(C2CC2(NS(=O)(=O)c2ccc(-c3cc(C(F)(F)F)on3)s2)C(=O)O)c1)N1CCOCC1 (stereo not drawn) [Example 2-258]
